Measurements from the NIST ThermoML archive (doi:10.1021/je500389t).

Assay: xn = mol fraction of the nth substance listed
Settings: 101 kPa, Liquid; for mass density: Pycnometric method; for viscosity: Capillary tube (Ostwald / Ubbelohde) method

COCCOCCOC [2,5,8-trioxanonane] + O
Settings | mass density, 303.15 K [kg/m3] | mass density, 308.15 K [kg/m3] | mass density, 313.15 K [kg/m3] | viscosity, 308.15 K [mPa·s] | viscosity, 313.15 K [mPa·s]
x1 = 0.0147 | 997.5 | 995.3 | 994.3 | 0.939 | 0.865
x1 = 0.0325 | 1000.2 | 998.1 | 995.2 | 1.23 | 1.09
x1 = 0.0548 | 1002.4 | 999.6 | 995.9 | 1.576 | 1.41
x1 = 0.0822 | 1003.1 | 999.7 | 995.8 | 1.91 | 1.7
x1 = 0.1183 | 1000.3 | 996.5 | 992.1 | 2.13 | 1.88
x1 = 0.1676 | 994.1 | 990.1 | 985.4 | 2.14 | 1.9
x1 = 0.2384 | 983.9 | 979.3 | 974.5 | 1.92 | 1.72
x1 = 0.2866 | 977.5 | 973.2 | 968 | 1.75 | 1.58
x1 = 0.3468 | 970.4 | 965.6 | 960.8 | 1.5 | 1.42
x1 = 0.4495 | 960.9 | 956.2 | 951.1 | 1.31 | 1.21
x1 = 0.5426 | 953.8 | 949.2 | 943.8 | 1.14 | 1.06
x1 = 0.699 | 945.4 | 941 | 935.7 | 1 | 0.941
x1 = 0.7996 | 941.2 | 936.4 | 931.4 | 0.902 | 0.851
x1 = 0.8928 | 938.1 | 933.3 | 928.2 | 0.862 | 0.817
x1 = 1 | 935 | 930.7 | 925.4 | 0.834 | 0.785
